Results reported in publication PMC6437697 (Journal of Medicinal Chemistry, 2019).

How the values were obtained:
Assay type in all cases: binding
[1] = system: 455 wild-type and mutant human protein and lipid kinases; assay: KINOMEscan panel summary; details: 1 μM
BRSK2 = biological target: T1, BRSK2 (Homo sapiens, UniProt Q8IWQ3); assay: KINOMEscan; details: read-out: % control activity remaining
T1 construct: purchased Eurofins DiscoverX KINOMEscan
T1 sequence (Q8IWQ3 1-736): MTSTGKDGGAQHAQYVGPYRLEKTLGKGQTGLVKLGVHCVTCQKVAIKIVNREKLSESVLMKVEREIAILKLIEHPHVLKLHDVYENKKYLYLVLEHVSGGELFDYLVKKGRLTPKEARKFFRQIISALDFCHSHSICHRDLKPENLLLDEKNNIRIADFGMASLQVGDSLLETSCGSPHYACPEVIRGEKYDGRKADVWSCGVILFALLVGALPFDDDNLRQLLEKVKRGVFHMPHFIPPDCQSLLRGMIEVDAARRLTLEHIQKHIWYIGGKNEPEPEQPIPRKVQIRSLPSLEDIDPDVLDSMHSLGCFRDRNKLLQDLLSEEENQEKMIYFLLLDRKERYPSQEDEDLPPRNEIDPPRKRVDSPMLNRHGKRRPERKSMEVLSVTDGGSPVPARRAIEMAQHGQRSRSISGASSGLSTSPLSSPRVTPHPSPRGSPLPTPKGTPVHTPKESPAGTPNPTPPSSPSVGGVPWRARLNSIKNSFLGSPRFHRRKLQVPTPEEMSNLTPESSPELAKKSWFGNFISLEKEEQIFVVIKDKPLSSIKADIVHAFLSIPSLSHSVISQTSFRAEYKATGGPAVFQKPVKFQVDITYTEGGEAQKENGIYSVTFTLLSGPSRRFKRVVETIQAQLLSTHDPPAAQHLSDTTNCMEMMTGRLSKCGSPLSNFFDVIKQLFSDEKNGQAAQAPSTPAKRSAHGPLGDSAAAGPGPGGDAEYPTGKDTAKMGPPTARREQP

CSNK1G2 = biological target: T2, CSNK1G2 (Homo sapiens, UniProt P78368); assay: KINOMEscan; details: read-out: % control activity remaining
T2 construct: purchased Eurofins DiscoverX KINOMEscan
T2 sequence (P78368 whole entry): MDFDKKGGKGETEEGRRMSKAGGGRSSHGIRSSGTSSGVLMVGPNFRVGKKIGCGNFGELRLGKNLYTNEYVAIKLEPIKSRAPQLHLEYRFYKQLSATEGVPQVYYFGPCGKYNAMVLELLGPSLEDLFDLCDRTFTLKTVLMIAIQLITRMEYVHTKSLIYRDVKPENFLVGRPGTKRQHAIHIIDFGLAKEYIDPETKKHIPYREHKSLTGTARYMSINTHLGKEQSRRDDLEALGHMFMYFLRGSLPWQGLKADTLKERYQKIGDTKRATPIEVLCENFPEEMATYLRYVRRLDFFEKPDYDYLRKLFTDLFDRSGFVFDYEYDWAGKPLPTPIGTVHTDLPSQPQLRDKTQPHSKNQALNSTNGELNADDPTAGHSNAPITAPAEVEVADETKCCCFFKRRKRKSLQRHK

FES = biological target: T3, FES (Homo sapiens, UniProt P07332); assay: KINOMEscan; details: read-out: % control activity remaining
T3 construct: purchased Eurofins DiscoverX KINOMEscan
T3 sequence (P07332 whole entry): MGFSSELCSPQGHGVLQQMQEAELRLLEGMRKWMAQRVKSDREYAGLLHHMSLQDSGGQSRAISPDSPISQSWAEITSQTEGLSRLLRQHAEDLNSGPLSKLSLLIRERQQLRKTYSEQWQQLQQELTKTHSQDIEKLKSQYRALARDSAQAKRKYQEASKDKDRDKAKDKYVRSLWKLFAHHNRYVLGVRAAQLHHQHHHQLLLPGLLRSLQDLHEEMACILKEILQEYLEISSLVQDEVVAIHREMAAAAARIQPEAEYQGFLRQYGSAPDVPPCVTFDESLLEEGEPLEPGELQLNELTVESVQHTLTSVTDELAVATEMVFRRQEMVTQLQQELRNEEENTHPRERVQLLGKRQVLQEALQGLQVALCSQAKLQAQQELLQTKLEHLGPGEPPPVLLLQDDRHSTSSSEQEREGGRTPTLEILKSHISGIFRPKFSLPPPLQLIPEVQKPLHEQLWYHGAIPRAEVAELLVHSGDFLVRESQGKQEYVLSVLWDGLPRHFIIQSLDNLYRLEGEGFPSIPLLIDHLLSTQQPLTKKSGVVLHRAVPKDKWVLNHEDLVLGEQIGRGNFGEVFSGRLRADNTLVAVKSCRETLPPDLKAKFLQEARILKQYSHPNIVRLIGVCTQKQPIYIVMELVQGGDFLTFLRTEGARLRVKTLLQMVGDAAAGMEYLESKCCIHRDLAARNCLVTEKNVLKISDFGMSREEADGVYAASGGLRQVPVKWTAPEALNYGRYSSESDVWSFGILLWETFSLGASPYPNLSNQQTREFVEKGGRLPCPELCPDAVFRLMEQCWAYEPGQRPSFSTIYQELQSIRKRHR

FLT3-autoinhibited = biological target: T4, FLT3-autoinhibited (Homo sapiens, UniProt P36888); assay: KINOMEscan; details: read-out: % control activity remaining
T4 construct: purchased Eurofins DiscoverX KINOMEscan
T4 sequence (P36888 564-993 limits assumed): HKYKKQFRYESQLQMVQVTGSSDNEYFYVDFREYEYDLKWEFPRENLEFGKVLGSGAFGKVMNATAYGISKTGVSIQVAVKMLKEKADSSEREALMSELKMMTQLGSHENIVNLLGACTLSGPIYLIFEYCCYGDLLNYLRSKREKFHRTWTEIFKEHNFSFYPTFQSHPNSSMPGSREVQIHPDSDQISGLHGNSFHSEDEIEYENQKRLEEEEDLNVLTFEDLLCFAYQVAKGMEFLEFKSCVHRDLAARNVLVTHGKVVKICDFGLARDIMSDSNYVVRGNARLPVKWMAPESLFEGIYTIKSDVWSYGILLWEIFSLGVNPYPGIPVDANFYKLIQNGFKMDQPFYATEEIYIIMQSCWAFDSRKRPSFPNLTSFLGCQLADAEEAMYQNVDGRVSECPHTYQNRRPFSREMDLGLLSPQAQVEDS

MAK = biological target: T5, MAK (Homo sapiens, UniProt P20794); assay: KINOMEscan; details: read-out: % control activity remaining
T5 construct: purchased Eurofins DiscoverX KINOMEscan
T5 sequence (P20794 1-623): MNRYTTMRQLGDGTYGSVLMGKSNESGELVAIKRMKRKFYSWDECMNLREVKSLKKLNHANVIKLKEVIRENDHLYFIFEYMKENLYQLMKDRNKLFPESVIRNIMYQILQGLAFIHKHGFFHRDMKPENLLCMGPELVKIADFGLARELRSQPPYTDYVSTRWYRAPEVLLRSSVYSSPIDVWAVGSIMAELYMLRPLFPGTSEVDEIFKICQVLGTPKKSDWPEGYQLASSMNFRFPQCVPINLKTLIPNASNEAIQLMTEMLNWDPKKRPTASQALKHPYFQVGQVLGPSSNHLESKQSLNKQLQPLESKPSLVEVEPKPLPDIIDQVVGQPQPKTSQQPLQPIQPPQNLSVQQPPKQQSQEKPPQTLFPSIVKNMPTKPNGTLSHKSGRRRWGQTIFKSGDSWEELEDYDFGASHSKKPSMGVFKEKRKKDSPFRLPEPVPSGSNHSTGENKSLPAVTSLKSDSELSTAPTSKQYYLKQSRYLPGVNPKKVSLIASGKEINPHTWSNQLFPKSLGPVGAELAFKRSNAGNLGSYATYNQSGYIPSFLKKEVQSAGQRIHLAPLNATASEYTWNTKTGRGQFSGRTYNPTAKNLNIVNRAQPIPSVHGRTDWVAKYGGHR

NEK6 = biological target: T6, NEK6 (Homo sapiens, UniProt Q9HC98); assay: KINOMEscan; details: read-out: % control activity remaining
T6 construct: purchased Eurofins DiscoverX KINOMEscan
T6 sequence (Q9HC98 whole entry): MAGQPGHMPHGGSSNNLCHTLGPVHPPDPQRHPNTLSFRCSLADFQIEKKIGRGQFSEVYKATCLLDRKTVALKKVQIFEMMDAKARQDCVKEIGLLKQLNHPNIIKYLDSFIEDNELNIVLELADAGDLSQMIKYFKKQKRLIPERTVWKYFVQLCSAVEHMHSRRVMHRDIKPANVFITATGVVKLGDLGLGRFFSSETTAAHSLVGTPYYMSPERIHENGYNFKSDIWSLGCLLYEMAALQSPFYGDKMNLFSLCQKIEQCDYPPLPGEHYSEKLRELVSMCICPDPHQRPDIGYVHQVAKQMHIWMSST

PIK3CA(C420R) = biological target: T7, PIK3CA(C420R) (Homo sapiens, UniProt P42336, C420R); assay: KINOMEscan; details: read-out: % control activity remaining
T7 construct: purchased Eurofins DiscoverX KINOMEscan
T7 sequence (P42336 whole entry C420R): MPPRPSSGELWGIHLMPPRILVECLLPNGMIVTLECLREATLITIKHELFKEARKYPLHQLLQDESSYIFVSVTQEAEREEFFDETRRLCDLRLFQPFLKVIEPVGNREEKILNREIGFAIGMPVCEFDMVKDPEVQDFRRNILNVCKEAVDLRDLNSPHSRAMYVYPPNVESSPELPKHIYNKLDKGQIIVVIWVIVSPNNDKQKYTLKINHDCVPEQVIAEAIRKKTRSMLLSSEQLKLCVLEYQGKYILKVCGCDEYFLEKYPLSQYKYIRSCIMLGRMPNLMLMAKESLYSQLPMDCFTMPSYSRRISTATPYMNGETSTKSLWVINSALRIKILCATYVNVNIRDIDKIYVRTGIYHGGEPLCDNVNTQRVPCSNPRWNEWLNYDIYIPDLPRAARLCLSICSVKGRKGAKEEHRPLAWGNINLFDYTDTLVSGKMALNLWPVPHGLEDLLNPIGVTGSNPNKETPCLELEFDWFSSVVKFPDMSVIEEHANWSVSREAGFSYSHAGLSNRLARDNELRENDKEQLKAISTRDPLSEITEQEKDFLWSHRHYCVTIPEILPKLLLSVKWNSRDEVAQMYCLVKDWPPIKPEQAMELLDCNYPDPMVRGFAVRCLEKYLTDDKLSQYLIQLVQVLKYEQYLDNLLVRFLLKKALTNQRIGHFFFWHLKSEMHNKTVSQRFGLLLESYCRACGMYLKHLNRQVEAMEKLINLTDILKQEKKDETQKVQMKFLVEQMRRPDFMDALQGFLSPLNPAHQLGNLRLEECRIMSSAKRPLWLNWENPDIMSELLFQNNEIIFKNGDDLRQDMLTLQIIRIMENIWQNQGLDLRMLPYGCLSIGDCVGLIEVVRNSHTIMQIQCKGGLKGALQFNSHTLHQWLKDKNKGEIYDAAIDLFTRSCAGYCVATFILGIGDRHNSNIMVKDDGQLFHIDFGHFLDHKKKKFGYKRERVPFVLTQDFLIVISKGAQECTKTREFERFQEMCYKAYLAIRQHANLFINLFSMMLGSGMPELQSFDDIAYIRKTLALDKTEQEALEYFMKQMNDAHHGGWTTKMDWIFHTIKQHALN

PIP5K1C = biological target: T8, PIP5K1C (Homo sapiens, UniProt O60331); assay: KINOMEscan; details: read-out: % control activity remaining
T8 construct: purchased Eurofins DiscoverX KINOMEscan
T8 sequence (O60331 whole entry): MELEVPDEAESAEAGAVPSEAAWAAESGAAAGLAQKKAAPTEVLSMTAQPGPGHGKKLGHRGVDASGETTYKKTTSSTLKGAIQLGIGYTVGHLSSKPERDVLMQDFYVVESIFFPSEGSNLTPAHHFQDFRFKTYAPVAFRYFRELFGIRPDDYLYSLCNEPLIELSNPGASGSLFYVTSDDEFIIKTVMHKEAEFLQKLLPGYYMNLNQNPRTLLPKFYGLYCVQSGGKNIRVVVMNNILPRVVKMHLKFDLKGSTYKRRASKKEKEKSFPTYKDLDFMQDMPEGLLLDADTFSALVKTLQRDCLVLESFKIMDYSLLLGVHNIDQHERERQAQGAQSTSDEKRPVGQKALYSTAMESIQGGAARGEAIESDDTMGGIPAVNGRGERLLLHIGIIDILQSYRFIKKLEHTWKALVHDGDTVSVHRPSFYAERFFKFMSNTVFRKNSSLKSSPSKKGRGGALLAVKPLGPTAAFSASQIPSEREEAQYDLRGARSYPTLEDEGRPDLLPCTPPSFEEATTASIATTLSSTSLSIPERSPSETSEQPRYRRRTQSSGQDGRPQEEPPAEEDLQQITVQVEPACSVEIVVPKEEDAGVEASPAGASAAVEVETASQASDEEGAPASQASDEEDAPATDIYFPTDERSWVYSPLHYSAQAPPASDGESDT

SGK3 = biological target: T9, SGK3 (Homo sapiens, UniProt Q96BR1); assay: KINOMEscan; details: read-out: % control activity remaining
T9 construct: purchased Eurofins DiscoverX KINOMEscan
T9 sequence (Q96BR1 1-496): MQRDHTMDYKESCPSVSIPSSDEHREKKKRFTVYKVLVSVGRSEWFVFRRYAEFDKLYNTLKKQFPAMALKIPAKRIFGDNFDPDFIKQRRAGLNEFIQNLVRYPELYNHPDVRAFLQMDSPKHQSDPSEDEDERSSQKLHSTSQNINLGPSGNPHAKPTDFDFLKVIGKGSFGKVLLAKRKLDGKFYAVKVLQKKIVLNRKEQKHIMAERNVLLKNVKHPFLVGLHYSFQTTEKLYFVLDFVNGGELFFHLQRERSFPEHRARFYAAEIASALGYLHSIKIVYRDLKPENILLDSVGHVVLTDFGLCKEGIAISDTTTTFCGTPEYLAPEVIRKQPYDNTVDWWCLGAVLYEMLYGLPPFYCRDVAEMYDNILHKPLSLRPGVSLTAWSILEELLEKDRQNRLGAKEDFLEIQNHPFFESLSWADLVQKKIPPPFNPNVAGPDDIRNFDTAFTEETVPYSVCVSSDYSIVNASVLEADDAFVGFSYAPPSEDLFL

Structure (SMILES)	kinases with >70% inhibition / wild-type and mutant kinases tested [1]	remaining binding at 1 µM (BRSK2)	remaining binding at 1 µM (CSNK1G2)	remaining binding at 1 µM (FES)	remaining binding at 1 µM (FLT3-autoinhibited)	remaining binding at 1 µM (MAK)	remaining binding at 1 µM (NEK6)	remaining binding at 1 µM (PIK3CA(C420R))	remaining binding at 1 µM (PIP5K1C)	remaining binding at 1 µM (SGK3)
Clc1cc(NCC2CC2)c2ncc(-c3ccc4[nH]ncc4c3)n2n1 [compound 2, 6-Chloro-N-(cyclopropylmethyl)-3-(1H-indazol-5-yl)imidazo[1,2-b]pyridazin-8-amine]	26/455	100%	100%	87%	42%	82%	99%	88%	85%	91%
O=C(CN1CCOCC1)N[C@H]1CC[C@H](Nc2cc(Cl)nn3c(-c4ccc5[nH]ncc5c4)cnc23)CC1 [compound 26]	54/455	98%	95%	88%	0.65%	61%	100%	89%	91%	65%
CN1CCC(CNc2cc(Cl)nn3c(-c4cc5nc(Nc6ccccc6)[nH]c5cc4F)cnc23)CC1 [compound 31, 6-Chloro-3-(6-fluoro-2-(phenylamino)-1H-benzo[d]imidazol-5-yl)-N-((1-methylpiperidin-4-yl)methyl)imidazo[1,2-b]pyridazin-8-amine]	4/455	84%	96%	96%	90%	69%	96%	85%	84%	93%
